This note sets out measurements from patent publication US10710980B2, “Aminopyridine derivatives and their use as selective ALK-2 inhibitors” (priority 2016, dated 2020).

What is called IC50 is the concentration that gives 50% inhibition.

Experiment [1] concerns the target T1, wild-type ALK2 (aa172-499) (Homo sapiens (Human), UniProt Q04771). Description: Caliper biochemical peptide phosphorylation assay, ALK2. The conditions noted are these: 15 μm ATP, 60 min at 30° C.; read-out: ALK2 EPK (IC50).
In experiment [2] the test system is BMP response element (BRE) luciferase reporter in HuH7 cells, BMP6 stimulated. Description: BMP signaling reporter gene assay. To be noted: Homo sapiens, Huh-7; HuH7 BRE-luciferase, BMP6 100 ng/ml, 5 hours; read-out: MSD BMP RGA IC50. The class given is cell-based. Background: Reporter assays use an easily measured gene product as a stand-in for the process of interest.

Experiment [3] has as its target T1, wild-type ALK2 (aa172-499). Description: ADPGlo biochemical autophosphorylation assay, ALK2. To be noted: 15 μm ATP, 60 min at 32° C.
The target in experiment [4] is ALK3 (aa198-525) (Homo sapiens (Human), UniProt P36894). Description: ADPGlo biochemical autophosphorylation assay, ALK3. To be noted: 15 μm ATP, 60 min at 32° C. A general note: ADP-Glo first removes unused ATP, then detects ADP through luciferase.
ALK3 (aa198-525), sequence (P36894 198-525): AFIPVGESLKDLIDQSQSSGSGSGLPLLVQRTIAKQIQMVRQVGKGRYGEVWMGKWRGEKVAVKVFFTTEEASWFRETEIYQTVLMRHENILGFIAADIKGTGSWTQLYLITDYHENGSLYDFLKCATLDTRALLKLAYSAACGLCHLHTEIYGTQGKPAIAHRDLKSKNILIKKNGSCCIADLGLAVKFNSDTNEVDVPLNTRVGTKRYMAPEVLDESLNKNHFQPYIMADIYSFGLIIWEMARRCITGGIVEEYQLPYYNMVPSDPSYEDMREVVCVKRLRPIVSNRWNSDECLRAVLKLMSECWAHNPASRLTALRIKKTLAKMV
Experiment [5] deals with ALK1 (aa166-493) (Homo sapiens (Human), UniProt P37023). The experiment can be described thus: Caliper biochemical peptide phosphorylation assay, ALK1. To be noted: 15 μm ATP, 60 min at 30° C.; read-out: ALK1 EPK (IC50).
ALK1 (aa166-493), sequence (P37023 166-493): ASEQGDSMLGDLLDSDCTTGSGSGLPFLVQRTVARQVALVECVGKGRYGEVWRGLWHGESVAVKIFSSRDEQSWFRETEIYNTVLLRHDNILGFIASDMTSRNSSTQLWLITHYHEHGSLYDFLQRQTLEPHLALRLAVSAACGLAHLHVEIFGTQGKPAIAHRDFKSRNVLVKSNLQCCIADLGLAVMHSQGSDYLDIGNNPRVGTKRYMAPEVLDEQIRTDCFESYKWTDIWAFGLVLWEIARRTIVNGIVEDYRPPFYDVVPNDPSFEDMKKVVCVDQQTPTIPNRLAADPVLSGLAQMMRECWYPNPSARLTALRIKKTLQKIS
In experiment [6] the target is ALK5 (aa162-503) (Homo sapiens (Human), UniProt P36897). The experiment can be described thus: Caliper biochemical peptide phosphorylation assay, ALK5. To be noted: 15 μm ATP, 60 min at 30° C.; read-out: ALK5 EPK (IC50).
ALK5 (aa162-503), sequence (P36897 162-503): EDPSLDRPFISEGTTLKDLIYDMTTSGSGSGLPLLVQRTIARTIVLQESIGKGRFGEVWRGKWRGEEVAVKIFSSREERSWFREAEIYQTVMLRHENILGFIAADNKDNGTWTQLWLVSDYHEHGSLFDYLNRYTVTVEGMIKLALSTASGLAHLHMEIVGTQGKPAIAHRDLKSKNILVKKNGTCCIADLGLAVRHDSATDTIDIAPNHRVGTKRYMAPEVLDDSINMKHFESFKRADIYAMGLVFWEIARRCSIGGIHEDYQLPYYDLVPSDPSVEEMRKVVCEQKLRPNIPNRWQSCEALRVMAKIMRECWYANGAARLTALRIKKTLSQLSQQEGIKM
Experiment [7] has as its target ALK6 (aa168-495) (Homo sapiens (Human), UniProt O00238). The experiment can be described thus: Caliper biochemical peptide phosphorylation assay, ALK6. The conditions noted are these: 15 μm ATP, 60 min at 30° C.; read-out: ALK6 EPK (IC50).

ALK6 (aa168-495), sequence (O00238 168-495): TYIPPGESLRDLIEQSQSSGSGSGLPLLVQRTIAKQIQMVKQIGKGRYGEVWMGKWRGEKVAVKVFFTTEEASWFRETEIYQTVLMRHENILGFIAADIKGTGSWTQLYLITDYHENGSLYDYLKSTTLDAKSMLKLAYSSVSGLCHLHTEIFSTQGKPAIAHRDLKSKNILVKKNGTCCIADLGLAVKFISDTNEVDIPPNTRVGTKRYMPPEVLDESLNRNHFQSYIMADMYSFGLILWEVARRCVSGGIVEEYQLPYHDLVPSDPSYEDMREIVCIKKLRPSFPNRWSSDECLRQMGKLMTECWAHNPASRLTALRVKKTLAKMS
T1 sequence (Q04771 172-499): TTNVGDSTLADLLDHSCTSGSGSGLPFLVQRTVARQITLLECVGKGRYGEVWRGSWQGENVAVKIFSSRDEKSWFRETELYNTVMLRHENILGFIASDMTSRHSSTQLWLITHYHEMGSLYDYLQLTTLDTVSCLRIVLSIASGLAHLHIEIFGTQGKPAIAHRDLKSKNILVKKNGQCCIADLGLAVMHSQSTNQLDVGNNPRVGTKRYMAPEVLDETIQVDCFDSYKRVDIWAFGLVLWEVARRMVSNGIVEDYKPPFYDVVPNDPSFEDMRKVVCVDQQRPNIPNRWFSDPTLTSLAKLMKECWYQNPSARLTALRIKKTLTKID

With `Nc1ncc(-c2ccc([C@@]34C[C@@H]3CN(C3CCOCC3)C4)cc2)cc1C(=O)NC12CC(CO)(C1)C2` [Example 30, 2-amino-N-(3-(hydroxymethyl)bicyclo[1.1.1]pentan-1-yl)-5-(4-((1R,5S)-3-(tetrahydro-2H-pyran-4-yl)-3-azabicyclo[3.1.0]hexan-1-yl)phenyl)nicotinamide], the IC50 worked out at 22 nM in experiment [1]; 68 nM in experiment [2]; 7 nM in experiment [3]; 500 nM in experiment [4]; 210 nM in experiment [5]; 4000 nM in experiment [6]. In addition, the IC50 in experiment [7] amounted to 2800 nM.

In the case of `Nc1ncc(-c2ccc([C@@]34C[C@@H]3CN(C3CCN(CC(F)(F)F)CC3)C4)cc2)cc1C(=O)N[C@H]1CC[C@H](O)CC1` [Example 39, 2-amino-N-((1r,4R)-4-hydroxycyclohexyl)-5-(4-((1R,5S)-3-(1-(2,2,2-trifluoroethyl)piperidin-4-yl)-3-azabicyclo[3.1.0]hexan-1-yl)phenyl)nicotinamide], the IC50 in experiment [1] came out at 24 nM; in experiment [2] it was 78 nM; in experiment [3] it was 13 nM; in experiment [4], 830 nM; in experiment [5], 190 nM; in experiment [6], 1600 nM. Moreover, the IC50 in experiment [7] worked out at 2000 nM.

Consider `CC(C)N1C[C@@H]2C[C@]2(c2ccc(-c3cnc(N)c(C(=O)NC45CC(CO)(C4)C5)c3)cc2)C1` [Example 16, 2-amino-N-(3-(hydroxymethyl)bicyclo[1.1.1]pentan-1-yl)-5-(4-((1S,5R)-3-isopropyl-3-azabicyclo[3.1.0]hexan-1-yl)phenyl)nicotinamide], for which the IC50 in experiment [1] came out at 15 nM; in experiment [2] it was 79 nM; in experiment [3] it was 12 nM; in experiment [4] it was 1400 nM; in experiment [5], 240 nM; in experiment [6], 9900 nM. For the same compound, the IC50 in experiment [7] amounted to 5000 nM.

Take `COCCN1C[C@@H]2C[C@]2(c2ccc(-c3cnc(N)c(C(=O)N[C@H]4CC[C@H](O)CC4)c3)cc2)C1` [Example 20, 2-amino-N-((1r,4S)-4-hydroxycyclohexyl)-5-(4-((1S,5R)-3-(2-methoxyethyl)-3-azabicyclo[3.1.0]hexan-1-yl)phenyl)nicotinamide]: the IC50 in experiment [1] amounted to 17 nM; in experiment [2], 40 nM; in experiment [3], 7 nM; in experiment [4], 1350 nM; in experiment [5], 130 nM; in experiment [6], 3800 nM. The IC50 in experiment [7] is 3950 nM.

As for `Nc1ncc(-c2ccc([C@]34C[C@H]3CN(CCN3CCOCC3)C4)cc2)cc1C(=O)NC12CCC(O)(CC1)CC2` [Example 40, 2-amino-N-(4-hydroxybicyclo[2.2.2]octan-1-yl)-5-(4-((1S,5R)-3-(2-morpholinoethyl)-3-azabicyclo[3.1.0]hexan-1-yl)phenyl)nicotinamide], the IC50 in experiment [1] was found to be 29 nM; in experiment [2] it was 75 nM; in experiment [3], 32 nM; in experiment [4], 995 nM; in experiment [5], 410 nM; in experiment [6] it was 3900 nM. For the same compound, the IC50 in experiment [7] amounted to 2850 nM.

Regarding `Nc1ncc(-c2ccc([C@]34C[C@H]3CN(CCF)C4)cc2)cc1C(=O)N[C@H]1CC[C@H](O)CC1` [Example 11, 2-amino-5-(4-((1S,5R)-3-(2-fluoroethyl)-3-azabicyclo[3.1.0]hexan-1-yl)phenyl)-N-((1r,4S)-4-hydroxycyclohexyl)nicotinamide], the IC50 in experiment [1] was found to be 12 nM; in experiment [2] it was 51 nM; in experiment [3], 9 nM; in experiment [4], 1100 nM; in experiment [5], 150 nM; in experiment [6], 2400 nM. Besides, the IC50 in experiment [7] stood at 3900 nM.
